Measured values reported in patent US10736927B2, “Pharmaceutical compositions for preventing or treating inflammatory bowel diseases” (INSERM (INSTITUT NATIONAL DE LA SANTE ET DE LA RECHERCHE …, priority 2015, dated 2020).

Legend:
Card9−/−→GF mice = test: DSS-induced colitis in Card9−/−→GF mice supplemented with three Lactobacillus strains; assay type: in vivo; settings: antagonist 100 μg/mouse i.p. three times per week, data not shown
Protocol: To induce colitis, mice were administered drinking water supplemented with 2% (wt./vol.) dextran sulfate sodium (DSS; MP Biomedicals, LLC, Aurora, Ohio, USA) for 7 days and were then allowed to recover by drinking unsupplemented water for the next 5 days. The 6-formylindolo(3,2-b)carbazole (Ficz; Enzo Life Sciences, Lausen, Switzerland) and the AHR antagonist CH223191 (AHR; Sigma-Aldrich) were resuspended in dimethyl sulfoxide (DMSO; Sigma-Aldrich) and administered intraperitoneally. Ficz was injected 1 day after DSS administration (1 μg/mouse). For the AHR treatment, WT→GF and Card9−/−→GF mice (4- to 5-week-old females) were treated (100 μg/mouse) three times per week until euthanization. Controls consisted of mice injected with DMSO vehicle alone for the Ficz and AHR treatment groups. […] The resulting sequences were aligned, inspected by eye, and compared with the online tool BLAST. Strains were identified based on the highest hit scores. These strains were deposited in the Collection Nationale de Cultures de Microorganismes (CNCM) of the Institut Pasteur and named L. murinus CNCM I-5020, L. reuteri CNCM I-5022, and L. taiwanensis CNCM I-5019. […] In all treatments, body weight, blood in stool, and stool consistency were analyzed daily. The severity of colitis was assessed using the disease activity index (DAI) as previously described (6).

[1] = tested on: DSS-exposed MCard9−/− mice; test: DSS-induced colitis with Ficz injection in microbiota-colonized germ-free mice; assay type: in vivo; settings: Ficz 1 μg/mouse i.p. 1 day after DSS; Ficz-treated MCard9−/− mice vs non-treated counterparts during recovery
Protocol: Fresh stool samples from WT or Card9^−/− mice were immediately transferred to an anaerobic chamber, in which the stool samples were suspended and diluted 1:100 in LYHBHI medium (BD Difco, Le Pont De Claix, France) supplemented with cellobiose (1 mg/ml; Sigma-Aldrich, St. Louis, Mo., USA), maltose (1 mg/ml; Sigma-Aldrich), and cysteine (0.5 mg/ml; Sigma-Aldrich). Four- to five-week-old WT germ-free mice were randomly assigned to two groups and inoculated via oral gavage with 400 μl of fecal suspension from the conventional wild-type (MWT) or Card9^−/− (MCard9^−/−) mice and maintained in separated isolators. One aliquot of each fecal suspension was stored at −80° C. […]
To induce colitis, the mice were administered drinking water supplemented with 2% (w/v) dextran sulfate sodium (DSS; MP Biomedicals, LLC, Aurora, Ohio, USA) for 7 days, and then allowed to recover by drinking unsupplemented water for the next 5 days (FIG. 7 a). […] Body weight, gross blood, and stool consistency were analyzed daily. The severity of colitis was assessed using the disease activity index (DAI) as previously described (6).
Colon samples for histological studies were maintained at 4° C. in 4% paraformaldehyde and then embedded in paraffin. […] The number of cleaved caspase-3-positive cells in 100 μm of analyzed colon was counted. Ki67 was quantified as a percentage of the total height of each crypt. […]

[2] = tested on: Il22, RegIIIγ, RegIIIβ, Il17A transcript expression in colon; test: Colon transcript expression by qRT-PCR in DSS-exposed mice treated with Ficz; assay type: in vivo, mouse
Protocol: (§1) To induce colitis, the mice were administered drinking water supplemented with 2% (w/v) dextran sulfate sodium (DSS; MP Biomedicals, LLC, Aurora, Ohio, USA) for 7 days, and then allowed to recover by drinking unsupplemented water for the next 5 days (FIG. 7 a). 6-formylindolo[3,2-b]carbazole (Ficz) was obtained from Enzo Life Sciences (Lausen, Switzerland) resuspended in dimethyl sulfoxide (DMSO; Sigma-Aldrich) and was administered intraperitoneally 1 day after DSS administration (1 μg/mouse). Controls consisted of mice injected with DMSO vehicle alone. For the antifungal treatment, mice were fed 0.5 mg/ml fluconazole in the drinking water (Sigma-Aldrich) 1 week before DSS administration and every day thereafter, as previously described^18. Body weight, gross blood, and stool consistency were analyzed daily. The severity of colitis was assessed using the disease activity index (DAI) as previously described (6).
Total RNA was isolated from colon samples using an RNeasy Mini Kit (Qiagen, Hilden, Germany), according to the manufacturer's instructions. Quantitative RT-PCR was performed using SuperScript II Reverse Transcriptase (Life Technologies, Saint Aubin, France) and then a Takyon SYBR Green PCR kit (Eurogentec, Liege, Belgium) in a StepOnePlus apparatus (Applied Biosystems, Foster City, Calif., USA) with specific mouse oligonucleotides. We used the 2^−ΔΔCt quantification method with mouse Gapdh as an endogenous control and the WT or MWT group as a calibrator.

[3] = tested on: cytokines secreted by colon explants; test: Cytokines secreted by colon explants (ELISA) of DSS-exposed mice treated with Ficz; assay type: in vivo, mouse
Protocol: as §1
MLNs and spleens were sieved through a 70-μm cell strainer (BD, Le Pont De Claix, France) in complete RPMI 1640 medium (10% heat-inactivated fetal calf serum, 2 mM L-glutamine, 50 IU/ml penicillin, and 50 μg/ml streptomycin; Sigma-Aldrich), and 1×10^6 cells per well were cultured (37° C., 10% CO2) for 48 h with stimulation by phorbol 12-myristate 13-acetate (PMA, 50 ng/ml; Sigma-Aldrich) and ionomycin (1 μM; Sigma-Aldrich). The culture supernatant was frozen at −80° C. until processing. To measure the cytokine levels in the colonic explants, tissues from the medium colon were isolated and rinsed in phosphate buffered saline (PBS; Gibco, Paisley, United Kingdom). The colonic explants were cultured (37° C., 10% CO2) overnight in 24-well tissue culture plates (Costar, Corning, Amsterdam, The Netherlands) in 1 ml of complete RPMI 1640 medium. The culture supernatants were collected and stored at −80° C. until processing. ELISAs were performed on the supernatants to quantify mouse cytokines according to the manufacturer's instructions: IL10, IL17A, and IFNγ (Mabtech, Nacka Strand, Sweden); IL22 (eBioscience, San Diego, Calif., USA); and IL6 (R&D Systems, Minneapolis, Minn., USA). For the colonic explants, cytokine concentrations were normalized according to the dry weight of each colonic explant.

[4] = tested on: DSS-exposed MWT and MCard9−/− mice; test: DSS-induced colitis with antifungal treatment in MWT and MCard9−/− mice; assay type: in vivo, mouse; settings: fluconazole 0.5 mg/ml in drinking water from 1 week before DSS
Protocol: as §1

AhR = AhR activation luciferase reporter assay in H1L1.1c2 cells; assay type: cell-based, mouse; settings: bacterial culture supernatant, relative to culture media (FIG. 13a)
Protocol: The H1L1.1c2 cell line containing a stably integrated DRE-driven firefly luciferase reporter plasmid pGudLuc1.1 was provided by Michael S. Denison (University of California, Davis, Calif., USA) and has been described previously (47, 48). The cells were seeded in 96-well plates at 7.5×10^4 cells/well in 100 μl of complete DMEM medium (10% heat-inactivated fetal calf serum, 50 IU/ml penicillin, and 50 μg/ml streptomycin; Sigma-Aldrich) and cultured (37° C., 10% CO2) for 24 h prior to treatment. Fresh stools from healthy and IBD patients in remission and from WT, Card9^−/−, MWT, MCard9^−/−, Ido1^−/− and germ-free mice were collected, weighed and stored at −80° C. until processing. The stools were suspended, diluted to 100 mg/ml in PBS, centrifuged (5000 g, 15 min, 4° C.) and filtered (0.2 μm; VWR, Fontenay-sous-Bois, France). Lactobacillus and Bifidobacterium spp. were grown in MRS medium (BD Difco, Le Pont De Claix, France) supplemented with 10% cysteine (Sigma-Aldrich) at 37° C. under respectively aerobic and anaerobic conditions. Allobaculum stercoricanis (DSMZ 13633) was cultivated under the recommended culture condition listed in the DSMZ. Cultured supernatants of these bacteria were stored at −80° C. until processing. […] After adding 100 μl of Promega-stabilized luciferase reagent, the luciferase activity was measured using a luminometer. […]

[5] = defect in MCard9−/− mice, Ficz 1 μg/mouse i.p.
[6] = Ficz-treated vs non-treated MCard9−/− mice

**Q.** `Cc1ccccc1N=Nc1ccc(NC(=O)c2ccnn2C)c(C)c1` [AHR antagonist, CH223191] was tested. Which “effects of the three Lactobacillus strains in the presence of an AHR antagonist” value (Card9−/−→GF mice) did it give?
**A.** abrogated

**Q.** With `O=Cc1c2c(cc3c1=Nc1ccccc1-3)=Nc1ccccc1-2` [Ficz, 6-formylindolo[3,2-b]carbazole] as the compound, how does the “colitis severity (body weight loss, histology score, colon shortening)” value [1] read?
**A.** weaker colitis severity

**Q.** And the Il17 expression ([2]; colon, Ficz treatment)?
**A.** not altered

**Q.** And the Il22 colonic expression [2, 5]?
**A.** rescued

**Q.** And the RegIIIβ colonic expression [2, 5]?
**A.** rescued

**Q.** What about the RegIIIγ colonic expression [2, 5] of the same compound?
**A.** rescued

**Q.** And the “IFNgamma in the colon” value [3, 6]?
**A.** No significant differences

**Q.** And the “IL6 in the colon” value [3, 6]?
**A.** No significant differences

**Q.** And the “IL10 in the colon” value [3, 6]?
**A.** No significant differences

**Q.** What about the Il17 production ([3]; colon explants cultured 24 h, Ficz treatment) of the same compound?
**A.** not altered

**Q.** With `OC(Cn1cncn1)(Cn1cncn1)c1ccc(F)cc1F` [antifungal, fluconazole] as the compound, how does the “colitis phenotype (weight loss and DAI) of MCard9−/− vs MWT mice” value [4] read?
**A.** did not modify the phenotype

**Q.** How did the “AhR activation by cultured supernatants” value (AhR) turn out when Lactobacillus reuteri was run?
**A.** strongly activate AhR
